SMILES strings stand for the structures. Bounds are passed on as bounds.

Usually IC50 stands for the point on the concentration scale where inhibition reaches its midpoint. Low values mean greater potency, high ones weaker potency.

Assay [1] deals with T1, Aminopeptidase N (Sus scrofa, UniProt P15145).
T1 sequence (P15145 whole entry): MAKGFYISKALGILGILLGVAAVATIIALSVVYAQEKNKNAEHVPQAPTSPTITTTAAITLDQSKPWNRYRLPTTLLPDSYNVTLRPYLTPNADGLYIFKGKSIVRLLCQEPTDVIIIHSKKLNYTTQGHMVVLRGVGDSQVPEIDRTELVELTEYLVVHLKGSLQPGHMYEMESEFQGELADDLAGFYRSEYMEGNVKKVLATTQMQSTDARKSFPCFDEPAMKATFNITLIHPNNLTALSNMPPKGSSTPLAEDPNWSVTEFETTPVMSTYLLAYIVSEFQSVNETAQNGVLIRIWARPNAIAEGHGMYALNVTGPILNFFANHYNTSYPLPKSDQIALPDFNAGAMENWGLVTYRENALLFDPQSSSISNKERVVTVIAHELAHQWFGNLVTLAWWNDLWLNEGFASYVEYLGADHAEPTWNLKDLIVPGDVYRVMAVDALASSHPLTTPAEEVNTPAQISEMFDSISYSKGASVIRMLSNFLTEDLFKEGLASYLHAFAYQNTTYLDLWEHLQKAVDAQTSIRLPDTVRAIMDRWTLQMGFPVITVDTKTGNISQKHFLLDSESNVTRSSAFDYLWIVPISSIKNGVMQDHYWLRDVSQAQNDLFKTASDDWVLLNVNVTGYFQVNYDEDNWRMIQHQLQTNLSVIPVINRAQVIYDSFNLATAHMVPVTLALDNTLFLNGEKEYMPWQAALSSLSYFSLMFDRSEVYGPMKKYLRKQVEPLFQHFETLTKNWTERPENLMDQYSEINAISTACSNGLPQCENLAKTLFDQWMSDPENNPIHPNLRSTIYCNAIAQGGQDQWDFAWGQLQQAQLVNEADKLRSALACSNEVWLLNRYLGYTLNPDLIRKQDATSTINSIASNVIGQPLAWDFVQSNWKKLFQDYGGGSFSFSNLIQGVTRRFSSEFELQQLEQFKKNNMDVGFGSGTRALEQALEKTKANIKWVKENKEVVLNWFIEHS
Briefly: Inhibition of pig kidney microsome aminopeptidase-N using L-leu-p-nitroanilide as substrate incubated for 5 mins prior to substrate addition measured after 30 mins by spectrophotometric analysis.

Assay [2] can be described thus: Cytotoxicity against human ES2 cells after 48 hrs by MTT assay. As to conditions: ES-2, 48 h. In general terms: Tetrazolium assays rely on reduction of a dye to a coloured formazan, in cell work by metabolically active cells.
The target of assay [3] is Aminopeptidase N (Homo sapiens, UniProt P15144). Briefly: Inhibition of aminopeptidase-N in human ES2 cells using L-leu-p-nitroanilide as substrate incubated for 5 mins prior to substrate addition measured after 30 mins by spectrophotometric analysis. Format: cell-based.
For assay [4], the target named is Histone deacetylase 1/3/5/8 (Homo sapiens, UniProt Q13547+O15379+Q9UQL6+Q9BY41). Briefly: Inhibition of HDAC1/3/5/8 in human HeLa cell extract using Boc-Lys-(acetyl)-AMC as substrate incubated for 5 mins prior to substrate addition measured after 30 mins by fluorometric analysis. Type of assay: protein assay.
In assay [5] the test system is MDA-MB-231. Briefly: cells. As to conditions: Homo sapiens, MDA-MB-231, 48 h.
Description: Cytotoxicity against human MDA-MB-231 cells after 48 hrs by MTT assay

Chain of Aminopeptidase N (Homo sapiens, UniProt P15144) (P15144 whole entry): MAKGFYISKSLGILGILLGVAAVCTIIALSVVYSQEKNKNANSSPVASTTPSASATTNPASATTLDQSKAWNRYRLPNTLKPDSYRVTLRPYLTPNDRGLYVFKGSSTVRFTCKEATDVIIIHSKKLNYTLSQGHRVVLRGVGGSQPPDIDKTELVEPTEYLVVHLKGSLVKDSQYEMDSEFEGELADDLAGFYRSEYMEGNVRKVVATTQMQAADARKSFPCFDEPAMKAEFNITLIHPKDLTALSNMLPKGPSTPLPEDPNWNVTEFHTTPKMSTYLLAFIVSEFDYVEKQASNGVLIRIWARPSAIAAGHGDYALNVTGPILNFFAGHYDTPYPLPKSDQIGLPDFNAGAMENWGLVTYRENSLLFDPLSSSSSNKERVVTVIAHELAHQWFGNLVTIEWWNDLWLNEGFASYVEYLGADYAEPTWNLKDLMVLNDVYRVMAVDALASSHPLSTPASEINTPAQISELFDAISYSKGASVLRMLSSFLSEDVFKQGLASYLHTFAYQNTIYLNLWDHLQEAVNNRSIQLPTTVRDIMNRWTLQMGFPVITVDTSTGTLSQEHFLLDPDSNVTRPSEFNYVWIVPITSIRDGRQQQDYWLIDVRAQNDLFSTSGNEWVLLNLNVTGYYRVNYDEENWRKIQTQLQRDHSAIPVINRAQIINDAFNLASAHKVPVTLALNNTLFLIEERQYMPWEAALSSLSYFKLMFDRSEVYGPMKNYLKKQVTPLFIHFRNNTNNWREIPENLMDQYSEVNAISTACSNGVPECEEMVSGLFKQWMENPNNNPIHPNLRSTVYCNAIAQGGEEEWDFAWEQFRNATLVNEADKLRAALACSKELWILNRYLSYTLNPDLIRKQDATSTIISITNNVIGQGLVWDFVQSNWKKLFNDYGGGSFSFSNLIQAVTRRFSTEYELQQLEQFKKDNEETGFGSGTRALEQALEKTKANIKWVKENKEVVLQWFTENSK

Turning to `O=C(CN1C(=O)C2(OCCO2)c2ccccc21)NO`, inhibition in assay [1] was half-maximal at 209 µM (IC50).
In the case of `O=C(CN1C(=O)C2(OCCO2)c2cc(Br)ccc21)N[C@@H](Cc1ccccc1)C(=O)NO`, the midpoint of inhibition in assay [1], the IC50, lay at 26.4 µM.
`CC(C)C[C@H](NC(=O)[C@@H](O)[C@H](N)Cc1ccccc1)C(=O)O` [UBENIMEX]: half-maximal inhibition in assay [2] (IC50) was put at 632 µM.
Take `O=C(CN1C(=O)C2(OCCCO2)c2cc(Br)ccc21)NO`: the half-maximal inhibitory concentration (IC50) is 19.7 µM in assay [3]; 137 µM in assay [2]; 3.4 µM in assay [1]; greater than 100 µM in assay [4]; 55.1 µM in assay [5].
On to `O=C(CN1C(=O)C2(OCCCO2)c2cc(Cl)ccc21)NO`, for which the IC50 in assay [3] was 10.9 µM; in assay [2] it was 233 µM; in assay [1], 1.3 µM; in assay [4], greater than 100 µM; in assay [5], 259 µM.
`CC(C)C[C@H](NC(=O)CN1C(=O)C2(OCCO2)c2cc(Br)ccc21)C(=O)NO` showed an IC50 in assay [1] of 22.5 µM. In other words, the double-digit micromolar range.
For `O=C(CN1C(=O)C2(OCCCCO2)c2cc(Br)ccc21)NO`, the IC50 is 12.1 µM in assay [3]; 409 µM in assay [2]; 0.086 µM in assay [1]; greater than 100 µM in assay [4]; 32.9 µM in assay [5].
`O=C(CN1C(=O)C2(OCCO2)c2cc(Br)ccc21)NC(C(=O)NO)c1ccccc1` (stereo not drawn) showed an IC50 in assay [1] greater than 1000 µM.
Still for that read-out and setting: to `Cc1ccc2c(c1)C1(OCCO1)C(=O)N2CC(=O)NO` belongs 2.63 µM; to `CC[C@H](C)[C@H](NC(=O)CN1C(=O)C2(OCCO2)c2cc(Br)ccc21)C(=O)NO`, 631 µM.
Consider `O=C(CN1C(=O)C2(OCCCCO2)c2cc(Cl)ccc21)NO`, for which the IC50 in assay [3] was 3.12 µM; in assay [2] it was 212 µM; in assay [1], 0.074 µM; in assay [4], greater than 100 µM; in assay [5] it was 91.5 µM.
In assay [4], `O=C(CN1C(=O)C2(OCCO2)c2cc(Br)ccc21)NO` gave an IC50 greater than 100 µM.
Turning to `O=C(CN1C(=O)C2(OCCCCO2)c2cc(F)ccc21)NO`, the half-maximal inhibitory concentration (IC50) in assay [3] is 15.2 µM; in assay [2], 553 µM; in assay [1], 4.06 µM; in assay [4], greater than 100 µM; in assay [5], 114 µM.
As to `O=C(CNC(=O)CN1C(=O)C2(OCCO2)c2cc(Br)ccc21)NO`, the IC50 in assay [1] worked out at 6.6 µM; in assay [4], 0.33 µM.
Take `O=C(CN1C(=O)C2(OCCO2)c2cc(F)ccc21)NO`: the IC50 in assay [3] is 16.2 µM; in assay [2] it was 142 µM; in assay [1], 5.3 µM; in assay [4] it was greater than 100 µM; in assay [5], 180 µM.
Consider `O=C(CN1C(=O)C2(OCCCO2)c2ccccc21)NO`, for which the IC50 in assay [1] came to 266 µM.
For `O=C(CN1C(=O)C2(OCCCO2)c2cc(F)ccc21)NO`, the IC50 is 97.5 µM in assay [3]; 457 µM in assay [2]; 6.71 µM in assay [1]; greater than 100 µM in assay [4]; 576 µM in assay [5].
Consider `Cc1ccc2c(c1)C1(OCCCO1)C(=O)N2CC(=O)NO`, for which the IC50 in assay [1] is 3.33 µM.
Take `CC(C)[C@H](NC(=O)CN1C(=O)C2(OCCO2)c2cc(Br)ccc21)C(=O)NO`: the IC50 in assay [1] is 226 µM.
For the compound `O=C(CN1C(=O)C2(OCCO2)c2cc(Cl)ccc21)NO`, the IC50 in assay [3] was 9.58 µM; in assay [2] it was 167 µM; in assay [1] it was 0.31 µM; in assay [4], greater than 100 µM; in assay [5], 177 µM.

The values above are taken from ChEMBL document CHEMBL2375252, “Novel indoline-2,3-dione derivatives as inhibitors of aminopeptidase N (APN)” (Bioorg Med Chem, 2013).
